What is called CC50 is the concentration that lowers cell viability or growth by half. Lower therefore signals harm at low concentration. In general, EC50 refers to the concentration giving half of the maximal effect. What is called EC90 is the concentration at which the effect reaches the 90% level.

Test system in the first data set: not listed separately
Nature of the data set: Cytotoxicity against human Ava5 cells after 3 days by neutral red dye assay. Type of data set: cell-based.
Details: not given
On to `O=C(Nc1cc(C(F)(F)F)ccc1Cl)c1ccccc1O`, for which it took 0.33 µM to reach half-maximal cytotoxicity (CC50 at 72 h).
Still for that read-out and setting: for `C[S+]([O-])c1csc(NC(=O)c2ccccc2O)n1` (centres undefined) the value was 63 µM; for `O=C(Nc1ccccc1Cl)c1ccccc1O`, 72 µM; for `O=C(Nc1ccc([N+](=O)[O-])cc1Cl)c1cc(Cl)ccc1O` [NICLOSAMIDE], 10 µM.
Regarding `O=C(Nc1cc(C(F)(F)F)cc(C(F)(F)F)c1)c1ccccc1O`, it took 3.7 µM to reach half-maximal cytotoxicity (CC50 at 72 h).
Compound `O=C(Nc1cccc(F)c1)c1ccccc1O` came in with a CC50 at 72 h of 3.4 µM.
As for `CC(=O)Oc1ccccc1C(=O)Nc1ccc(Br)cc1`, it took 0.6 µM to reach half-maximal cytotoxicity (CC50 at 72 h).
Compound `CS(=O)(=O)c1csc(NC(=O)c2ccccc2O)n1` came in with a CC50 at 72 h of 85 µM.
Turning to `Cc1ccc(C(=O)Nc2ncc(Cl)s2)c(O)c1`, the midpoint of cytotoxicity, the CC50 at 72 h, lay at 30 µM. This CC50 at 72 h is about 2.8-fold lower than that of the compound before.
In the case of `CC(=O)Oc1ccccc1C(=O)Nc1nc(C(F)(F)F)cs1`, half-maximal cytotoxicity (CC50 at 72 h) was put at 2.8 µM.
The same measure, in the same setting: for `O=C(Nc1ncc([N+](=O)[O-])s1)c1cc(Cl)ccc1O` the value was > 100 µM; for `Cc1cnc(NC(=O)c2ccccc2O)s1`, 45 µM; for `O=C(Nc1ncc(Cl)s1)c1ccccc1O`, 15 µM.
Turning to `Cc1nc(NC(=O)c2ccccc2O)sc1Br`, it took 15 µM to reach half-maximal cytotoxicity (CC50 at 72 h).
As to `CC(=O)Oc1ccccc1C(=O)Nc1cccc(F)c1`, the CC50 at 72 h was > 100 µM.
In turn, `COC(=O)c1ccc(NC(=O)c2ccccc2OC(C)=O)cc1` came in with a CC50 at 72 h of 4.4 µM. This counts as single-digit micromolar.
In turn, `CCOC(=O)c1cnc(NC(=O)c2ccccc2O)s1` came in with a CC50 at 72 h of 14 µM. This CC50 at 72 h lies about 3.2-fold higher than the previous one.
For `CS(=O)(=O)c1ccc(NC(=O)c2ccccc2O)cc1`, the CC50 at 72 h was > 100 µM.

The subject of another data set is Hepatitis C virus. The experiment in a line: Antiviral activity against HCV genotype 1b infected in Ava5 cells assessed as inhibition of viral replication after 3 days by blot hybridization analysis. The settings on record: Ava5, 72 h. The format is functional, organism-based, Hepacivirus hominis.
As for `O=C(Nc1cc(C(F)(F)F)ccc1Cl)c1ccccc1O`, the EC50 is 0.01 µM and the EC90 worked out at 0.03 µM.
The like results for `C[S+]([O-])c1csc(NC(=O)c2ccccc2O)n1` (centres undefined) were, in that order, 2 µM and 4.6 µM.
For `O=C(Nc1ccccc1Cl)c1ccccc1O`, in that order: 3.8 µM and 21 µM.
The like results for `O=C(Nc1ccc([N+](=O)[O-])cc1Cl)c1cc(Cl)ccc1O` [NICLOSAMIDE] were, in that order, 0.16 µM and 0.7 µM.
For `O=C(Nc1cc(C(F)(F)F)cc(C(F)(F)F)c1)c1ccccc1O`, the EC50 was 3.5 µM and the EC90 came to 8.1 µM.
With `O=C(Nc1cccc(F)c1)c1ccccc1O`, the EC50 amounted to 0.13 µM and the EC90 turned out to be 0.83 µM.
The like results for `CC(=O)Oc1ccccc1C(=O)Nc1ccc(Br)cc1` were, in that order, 0.45 µM and 3.4 µM.
The like results for `CS(=O)(=O)c1csc(NC(=O)c2ccccc2O)n1` were, in that order, 0.5 µM and 1.7 µM.
Turning to `Cc1ccc(C(=O)Nc2ncc(Cl)s2)c(O)c1`, the EC50 is > 10 µM and the EC90 is > 10 µM.
As for `CC(=O)Oc1ccccc1C(=O)Nc1nc(C(F)(F)F)cs1`, the half-maximal effective concentration (EC50) is > 10 µM and the EC90 was > 10 µM.
With `O=C(Nc1ncc([N+](=O)[O-])s1)c1cc(Cl)ccc1O`, the EC50 was 2 µM and the EC90 came out at 5.9 µM.
The like results for `Cc1cnc(NC(=O)c2ccccc2O)s1` were, in that order, 4.2 µM and 14 µM.
The like results for `O=C(Nc1ncc(Cl)s1)c1ccccc1O` were, in that order, 10 µM and 10 µM.
The like results for `Cc1nc(NC(=O)c2ccccc2O)sc1Br` were, in that order, > 10 µM and > 10 µM.
On to `CC(=O)Oc1ccccc1C(=O)Nc1cccc(F)c1`, for which the EC50 was determined as 3.8 µM and the concentration for an effect of 90% (EC90) is 11 µM.
For `COC(=O)c1ccc(NC(=O)c2ccccc2OC(C)=O)cc1`, in that order: 0.06 µM and 0.46 µM.
The like results for `CCOC(=O)c1cnc(NC(=O)c2ccccc2O)s1` were, in that order, > 10 µM and > 10 µM.
Turning to `CS(=O)(=O)c1ccc(NC(=O)c2ccccc2O)cc1`, the EC50 is > 10 µM and the EC90 is > 10 µM.

Test system in another data set: not listed separately
The experiment in a line: Selectivity index, ratio of CC50 for human Ava5 cells to EC50 for HCV genotype 1b infected in human Ava5 cells.
Details: not given
`O=C(Nc1cc(C(F)(F)F)ccc1Cl)c1ccccc1O`: the “Ratio CC50/EC50” value is reported as 65.2.
On the same count and under the same terms, for `C[S+]([O-])c1csc(NC(=O)c2ccccc2O)n1` (centres undefined) the value was 32; for `O=C(Nc1ccccc1Cl)c1ccccc1O`, 19; for `O=C(Nc1ccc([N+](=O)[O-])cc1Cl)c1cc(Cl)ccc1O` [NICLOSAMIDE], 16.2.
Same read-out and setting: as for `O=C(Nc1cc(C(F)(F)F)cc(C(F)(F)F)c1)c1ccccc1O`, the figure is 1.1.
On the same count and under the same terms, for `O=C(Nc1cccc(F)c1)c1ccccc1O` the value was 26.
`CC(=O)Oc1ccccc1C(=O)Nc1ccc(Br)cc1`: the “Ratio CC50/EC50” value came to 1.3.
As for `CS(=O)(=O)c1csc(NC(=O)c2ccccc2O)n1`, the “Ratio CC50/EC50” value is recorded as 170.
`O=C(Nc1ncc([N+](=O)[O-])s1)c1cc(Cl)ccc1O`: the “Ratio CC50/EC50” value is >50.
Still for that read-out and setting: for `Cc1cnc(NC(=O)c2ccccc2O)s1` the value was 11; for `CC(=O)Oc1ccccc1C(=O)Nc1cccc(F)c1`, 26; for `COC(=O)c1ccc(NC(=O)c2ccccc2OC(C)=O)cc1`, 76.

Test system in a further data set: not listed separately
Nature of the data set: Aqueous solubility of the compound. The format is physicochemical. The settings on record: buffer.
For `O=C(Nc1ccc([N+](=O)[O-])cc1Cl)c1cc(Cl)ccc1O` [NICLOSAMIDE], the solubility entry was “soluble”.
Same read-out and setting: for `O=C(Nc1cc(C(F)(F)F)cc(C(F)(F)F)c1)c1ccccc1O` the value was “soluble”; for `CC(=O)Oc1ccccc1C(=O)Nc1nc(C(F)(F)F)cs1`, “soluble”.

The values above are taken from ChEMBL document CHEMBL1938327, “Thiazolides as novel antiviral agents. 2. Inhibition of hepatitis C virus replication” (J Med Chem, 2011).
